Tests used:
[1] = Oral absorption (amount of compound in rat serum by HPLC, area under curve); type: in vivo, Sprague-Dawley female rats; conditions: single dosage 160 mg/kg in water, 0.5 to 24 hours, average of 3 rats
Experimental: Twelve-week-old Sprague-Dawley female rats (3 rats per group) were bred for acclimation for a week. Then, the compounds of the present invention and a reference substrate were dissolved in water, and orally administered to the rats in a single dosage (160 mg/kg). After 0.5 hour, 1 hour, 2 hours, 4 hours, 6 hours, 8 hours, and 24 hours, the amounts of each compound (ng) per 1 ml of serum were measured using HPLC. Curves were obtained from the relation between an elapsed time after administration and the amount of the compound in serum at each elapsed time, respectively, and an average of the areas under the curves was calculated.
As a reference substance, Compound No. 184 disclosed in Japanese Unexamined Patent Publication (Kokai) No. 8-48651 was used. Compound No. 184 corresponds to the compound of the formula (I) wherein R^1 =nBu, A=N, Z=C, R^2 =CO, R^3 =NC4 H8 O, R^4 =H, R^5 =Me, and R^6 =Me.

ICR female mice = assay: Acute toxicity, single oral dose in mice; conditions: mouse, in vivo
Experimental: The aromatic compounds of the formula (I) according to the present invention were orally administered to mice at the dose of 500 mg/kg, but no fatalities were observed over a period of one week.
Five-week-old ICR female mice (5 mice per group) were bred for acclimation for a week. Then, the compounds of the present invention were dissolved in water, and orally administered to the mice in a single dosage (500 mg/kg).

[2] = target: T1, angiotensin II receptor subtype 1 (AT1) (Oryctolagus cuniculus, UniProt P34976); assay: Binding to receptors: angiotensin II receptor subtype 1 (AT1); design: species or system rabbits (adrenal glands); conditions: rabbit adrenal glands, tracer 3H-angiotensin II
T1 construct: receptor : from adrenal glands in rabbits; from tissue; host or cells: rabbit adrenal glands
T1 sequence (P34976 1-359): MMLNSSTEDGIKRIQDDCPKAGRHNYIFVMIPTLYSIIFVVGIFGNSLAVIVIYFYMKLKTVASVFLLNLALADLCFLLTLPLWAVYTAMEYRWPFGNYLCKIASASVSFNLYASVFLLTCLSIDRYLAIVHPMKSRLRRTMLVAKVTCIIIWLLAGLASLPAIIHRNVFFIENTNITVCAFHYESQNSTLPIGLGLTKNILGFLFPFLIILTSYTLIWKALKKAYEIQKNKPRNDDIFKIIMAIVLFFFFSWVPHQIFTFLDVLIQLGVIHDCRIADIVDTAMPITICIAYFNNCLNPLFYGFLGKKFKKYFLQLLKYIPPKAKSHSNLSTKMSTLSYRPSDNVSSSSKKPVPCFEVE
Experimental: In this Example, the affinity to the angiotensin II receptor subtype 1 or subtype 2 was evaluated by a binding assay in accordance with the method described in Biochem. Pharmacol., 33, 4057-4062 (1984).
Specifically, the measurement of the total binding in the presence of each drug was performed as follows:
A mixture (final volume=0.25 ml) of a drug in a given concentration (the drug was dissolved in DMSO, and diluted to a double volume with a buffer attached to a drug discovery system to prepare a sample for the assay; 0.025 ml), a tracer (0.025 ml), and receptors (0.2 ml) was incubated [in the case of the angiotensin II receptor subtype 1 (AT1), at room temperature for 3 hours, and in the case of the subtype 2 (AT2), at 37° C. for 1 hour]. Then, the reaction mixture was filtered with suction (GF/C filter was used in AT1, and GF/B filter was used in AT2). The filter papers after filtration with suction (the tracer bound to the receptors) were counted by a γ-well counter (ARC-500, Aloka). The non-specific bindings were measured by repeating the above method, except that a large excess amount of a displacer was added. The specific binding of the drug in the given concentration was calculated by subtracting the non-specific binding from the total binding, respectively.
receptor : from adrenal glands in rabbits
tracer : ^3 Hangiotensin II

[3] = tested on: kidney disease model rats; assay: Action to lower blood pressure in kidney disease model rats (tail cuff); type: in vivo, Sprague-Dawley female rats; conditions: systolic, average of 8 rats, 20 mg/kg with drinking water, two days after administration; control 210
Experimental: (§1) The compounds of the present invention and the reference substance were administered with drinking water to kidney disease model rats, and the action of lowering the blood pressure was observed. The kidney disease model rats were prepared by a ligature of branches of renal artery in accordance with a conventional method. Namely, the left hilum renalis of Sprague-Dawley female rats was exposed under anesthesia, and one of four secondary branches of the renal artery was left unligated, while the remaining three branches were ligated, respectively. After a week, the hilum renalis (artery, vein, and ureter) of the right kidney were further ligated to thereby prepare rats whose renal function was lowered to approximately 1/8 of the normal function. Each group consisted of eight rats. The drugs to be tested (20 mg/kg) were administered to each administering group, and only water was administered to a control group. Two days after the administration, the systolic blood pressure was measured by the tail cuff method using a blood pressure measuring apparatus (UR5000; Ueda).

[4] = tested on: kidney disease model rats; assay: Renal function indicatory value in kidney disease model rats; type: in vivo, Sprague-Dawley female rats; conditions: 20 mg/kg/day with drinking water, six weeks; for Creatinine clearance: 24 hours urine, control 0.22; for Creatinine / Blood urea nitrogen: serum; for Creatinine: control 2.0; for Blood urea nitrogen: control 100
Experimental: as §1, with “The” for “The compounds of the present invention and the reference substance were administered with drinking water to kidney disease model rats, and the action of lowering the blood pressure was observed. The”
The rats in each group were allowed to freely take up food. […] To the rats in the control group, only water was administered every day. After six weeks, 0.2 ml of blood was collected from the carotid artery of the rats under anesthesia, and centrifuged to obtain serum. Using 25 μl of the serum, the serum creatinine (Scr) was measured by a creatinine analytical instrument (Beckman). Using 10 μl of the serum, the blood urea nitrogen (BUN) was measured by a BUN analytical instrument (Beckman). The creatinine clearance was evaluated as follows:
After the serum creatinine measurement, rats were placed in urinary metabolic cages for 24 hours to collect urine. A urinary creatine concentration (Ucr) was measured by a creatinine analytical instrument, and a total volume of urination (Uvol) was also measured. The creatinine clearance (CCr) was calculated by the following formula: [formula]

Row | Structure (SMILES) | AUC at 24 h [1] | Number of deaths/number of survivals (ICR female mice) | inhibition at 100 µM [2] | Blood Pressure [3] | Creatinine clearance [4] | Creatinine [4] | Blood urea nitrogen [4]
1 | CCCCC(=O)N(Cc1ccc(C(=O)OCCN(C)C)cc1)c1cc(C(=O)N2CCOCC2)ccc1C(C)C [Compound No. 6, 3-N-[[[4-(2'-dimethylaminoethoxycarbonyl)phenyl]methyl]valeramido]-4-i-propylbenzoic acid morpholide] | 34700 ng·h/mL | 0/5 | 11% | 209 mmHg | 0.33 mL/min | 1.3 mg/dL | 75 mg/dL
2 | CCCCC(=O)N(Cc1ccc(C(=O)OCCN(C)C)cc1)c1cc(C(=O)N2CCOCC2)ccc1N(C)C [Compound No. 1, 4-dimethylamino-3-N-[[[4-(2'-dimethylaminoethoxycarbonyl)phenyl]methyl]valeramido]benzoic acid morpholide] | 13900 ng·h/mL | 0/5 | 10% | 205 mmHg | 0.47 mL/min | 1.2 mg/dL | 62 mg/dL
3 | CCCCC(=O)N(Cc1ccc(C(=O)O)cc1)c1cc(C(=O)N2CCN(C)CC2)ccc1C(C)C [Compound No. 15, 3-[[(4-carboxyphenyl)methyl]valeramido]-4-i-propylbenzoic acid 4'-methylpiperazide] | 5670 ng·h/mL | 0/5 | 0% | 200 mmHg | 0.26 mL/min | 1.8 mg/dL | 90 mg/dL
4 | CCCCC(=O)N(Cc1ccc(C(=O)OCCN2CCOCC2)cc1)c1cc(C(=O)N2CCOCC2)ccc1C(C)C [Compound No. 9, 3-N-[[[4-(2'-morpholinoethoxycarbonyl)phenyl]methyl]valeramido]-i-propylbenzoic acid morpholide] | 50300 ng·h/mL | 0/5 | 13% | 207 mmHg | 0.31 mL/min | 1.6 mg/dL | 83 mg/dL
5 | CCCCCCC(=O)N(Cc1ccc(C(=O)O)cc1)c1cc(C(=O)N2CCN(C)CC2)ccc1C(C)C [Compound No. 18, 3-N-[[(4-carboxyphenyl)methyl]n-heptanamido]-4-i-propylbenzoic acid 4'-methylpiperazide] | 12800 ng·h/mL | 0/5 | 11% | 210 mmHg | 0.32 mL/min | 1.4 mg/dL | 76 mg/dL
6 | CCCCC(=O)N(Cc1ccc(C(=O)O)cc1)c1cc(C(=O)N2CCN(CCC)CC2)ccc1C(C)C [Compound No. 19, 3-[[(4-carboxyphenyl)methyl]valeramido]-4-i-propylbenzoic acid 4'-n-propylpiperazide] | 172000 ng·h/mL | 0/5 | 11% | 194 mmHg | 0.33 mL/min | 1.3 mg/dL | 76 mg/dL
7 | CCCCC(=O)N(Cc1ccc(C(=O)OCCN(CC)CC)cc1)c1cc(C(=O)N2CCOCC2)ccc1C(C)C [Compound No. 8, 3-N-[[[4-(2'-diethylaminoethoxycarbonyl)phenyl]methyl]valeramido]-4-i-propylbenzoic acid morpholide] | 24600 ng·h/mL | 0/5 | 11% | 203 mmHg | 0.35 mL/min | 1.5 mg/dL | 78 mg/dL
8 | CCCCCCC(=O)N(Cc1ccc(C(=O)O)cc1)c1cc(C(=O)N2CCN(CCC)CC2)ccc1C(C)C [Compound No. 20, 3-N-[[(4-carboxyphenyl)methyl]n-heptanamido]-4-i-propylbenzoic acid 4'-n-propylpiperazide] | 183000 ng·h/mL | 0/5 | 0% | 209 mmHg | 0.32 mL/min | 1.3 mg/dL | 75 mg/dL
9 | CCCCCCC(=O)N(Cc1ccc(C(=O)O)cc1)c1cc(C(=O)N2CCN(CCC)CC2)ccc1N(C)C [Compound No. 12, 4-dimethylamino-3-N-[[(4-carboxyphenyl)methyl]n-heptanamido]benzoic acid 4'-n-propyl piperazide] | 32200 ng·h/mL | 0/5 | 0% | 202 mmHg | 0.35 mL/min | 1.3 mg/dL | 80 mg/dL
10 | CCCCC(=O)N(Cc1ccc(C(=O)OCCCN)cc1)c1cc(C(=O)N2CCOCC2)ccc1N(C)C [Compound No. 3, 3-N-[[[4-(3'-aminopropoxycarbonyl)phenyl]methyl]valeramido]-4-dimethylaminobenzoic acid morpholide] | 9530 ng·h/mL | 0/5 | 0% | 203 mmHg | 0.33 mL/min | 1.3 mg/dL | 78 mg/dL
11 | CCCCC(=O)N(Cc1ccc(C(=O)OCCCN(C)C)cc1)c1cc(C(=O)N2CCOCC2)ccc1C(C)C [Compound No. 7, 3-N-[[[4-(3'-dimethylamino-1'-propoxycarbonyl)phenyl]methyl]valeramido]-4-i-propylbenzoic acid morpholide] | 14000 ng·h/mL | 0/5 | 14% | 206 mmHg | 0.32 mL/min | 1.4 mg/dL | 76 mg/dL

Source: patent US5863913A, “Aromatic compound and pharmaceutical composition” (Kureha Chemical Industry Co., Ltd., priority 1996, dated 1999)
